In brackets after ≈: the same amount, converted by molar mass. Activity calls are given as the source filed them. The calls are words filed in the database; no cut-off is given here. Bridge positions count the residues as written; N and C are the ends. Square brackets hold non-standard residues; d marks the D form. Peptide text beside a SMILES is read from it. * marks the point of attachment. Decanoyl = CCCCCCCCCC(=O)*; dDab = NCC[C@@H](N)C(=O)O; Dab = NCC[C@H](N)C(=O)O
Assays:
[1] = system: Pseudomonas aeruginosa; assay: Antibacterial activity against Pseudomonas aeruginosa FADDI-PA090 incubated for 18 hrs by broth microdilution method; assay type: functional
[2] = system: Pseudomonas aeruginosa; assay: Antibacterial activity against Pseudomonas aeruginosa ATCC 27853 incubated for 18 hrs by broth microdilution method; assay type: functional
[3] = system: Pseudomonas aeruginosa; assay: Antibacterial activity against Pseudomonas aeruginosa FADDI-PA060 incubated for 18 hrs by broth microdilution method; assay type: functional
[4] = system: Pseudomonas aeruginosa; assay: Antibacterial activity against Pseudomonas aeruginosa FADDI-PA070 incubated for 18 hrs by broth microdilution method; assay type: functional
[5] = system: Pseudomonas aeruginosa; assay: Antibacterial activity against Pseudomonas aeruginosa FADDI-PA025 incubated for 18 hrs by broth microdilution method; assay type: functional
[6] = system: Pseudomonas aeruginosa; assay: Antibacterial activity against Pseudomonas aeruginosa ATCC 27853 assessed as inhibition of bacterial growth incubated for 18 to 24 hrs by broth microdilution method; assay type: functional; conditions: time 18-24 hrs
[7] = system: Pseudomonas aeruginosa; assay: Antibacterial activity against carbapenem resistant Pseudomonas aeruginosa clinical isolate 17-1 assessed as inhibition of bacterial growth incubated for 18 to 24 hrs by broth microdilution method; assay type: functional; conditions: time 18-24 hrs
[8] = system: Escherichia coli; assay: Antibacterial activity against KPC producing Escherichia coli ATCC BAA-2340 assessed as inhibition of bacterial growth incubated for 18 to 24 hrs by broth microdilution method; assay type: functional; conditions: time 18-24 hrs
[9] = system: Escherichia coli; assay: Antibacterial activity against Escherichia coli; assay type: functional
[10] = system: Pseudomonas aeruginosa; assay: Antibacterial activity against Pseudomonas aeruginosa clinical isolate 19-1 assessed as inhibition of bacterial growth incubated for 18 to 24 hrs by broth microdilution method; assay type: functional; conditions: time 18-24 hrs
[11] = Selectivity index, ratio of IC50 for cytotoxicity against human HK-2 cells to MIC for antibacterial activity against Escherichia coli ATCC BAA-2523; assay type: toxicity, cell-based
[12] = system: Klebsiella pneumoniae; assay: Antibacterial activity against carbapenem resistant Klebsiella pneumoniae clinical isolate 19-15 assessed as inhibition of bacterial growth incubated for 18 to 24 hrs by broth microdilution method; assay type: functional; conditions: time 18-24 hrs
[13] = system: Pseudomonas aeruginosa; assay: Antibacterial activity against Pseudomonas aeruginosa; assay type: functional
[14] = system: Staphylococcus epidermidis; assay: Antibacterial activity against methicillin resistant Staphylococcus epidermidis clinical isolate 19-6 assessed as inhibition of bacterial growth incubated for 18 to 24 hrs by broth microdilution method; assay type: functional; conditions: time 18-24 hrs
[15] = system: Staphylococcus epidermidis; assay: Antibacterial activity against Staphylococcus epidermidis; assay type: functional
[16] = system: Staphylococcus aureus; assay: Antibacterial activity against methicillin resistant Staphylococcus aureus ATCC 33591 assessed as inhibition of bacterial growth incubated for 18 to 24 hrs by broth microdilution method; assay type: functional; conditions: time 18-24 hrs
[17] = system: Staphylococcus aureus; assay: Antibacterial activity against Staphylococcus aureus; assay type: functional
[18] = system: Escherichia coli; assay: Antibacterial activity against Escherichia coli clinical isolate 19-2 assessed as inhibition of bacterial growth incubated for 18 to 24 hrs by broth microdilution method; assay type: functional; conditions: time 18-24 hrs
[19] = Cytotoxicity against human HK-2 cells assessed as inhibition of cell growth incubated for 72 hrs by CCK-8 assay; assay type: toxicity, cell-based
[20] = system: Klebsiella pneumoniae; assay: Antibacterial activity against KPC producing Klebsiella pneumoniae ATCC BAA-1705 assessed as inhibition of bacterial growth incubated for 18 to 24 hrs by broth microdilution method; assay type: functional; conditions: time 18-24 hrs
[21] = system: Klebsiella pneumoniae; assay: Antibacterial activity against Klebsiella pneumoniae; assay type: functional
[22] = system: Staphylococcus aureus; assay: Antibacterial activity against Staphylococcus aureus ATCC 29213 assessed as inhibition of bacterial growth incubated for 18 to 24 hrs by broth microdilution method; assay type: functional; conditions: time 18-24 hrs
[23] = system: Acinetobacter baumannii; assay: Antibacterial activity against Acinetobacter baumannii; assay type: functional
[24] = system: Acinetobacter baumannii; assay: Antibacterial activity against oxacillinase-27 producing Acinetobacter baumannii NCTC 13304 assessed as inhibition of bacterial growth incubated for 18 to 24 hrs by broth microdilution method; assay type: functional; conditions: time 18-24 hrs
[25] = system: Candida albicans; assay: Antifungal activity against Candida albicans; assay type: functional
[26] = system: Klebsiella pneumoniae; assay: Antibacterial activity against carbapenem resistant Klebsiella pneumoniae clinical isolate 19-17 assessed as inhibition of bacterial growth incubated for 18 to 24 hrs by broth microdilution method; assay type: functional; conditions: time 18-24 hrs
[27] = system: Escherichia coli; assay: Antibacterial activity against Escherichia coli ATCC BAA-2523 assessed as inhibition of bacterial growth incubated for 18 to 24 hrs by broth microdilution method; assay type: functional; conditions: time 18-24 hrs
[28] = system: Pseudomonas aeruginosa; assay: Antibacterial activity against carbapenem resistant Pseudomonas aeruginosa clinical isolate 19-3 assessed as inhibition of bacterial growth incubated for 18 to 24 hrs by broth microdilution method; assay type: functional; conditions: time 18-24 hrs
[29] = system: Escherichia coli; assay: Antibacterial activity against Escherichia coli NCTC 13353 assessed as inhibition of bacterial growth incubated for 18 to 24 hrs by broth microdilution method; assay type: functional; conditions: time 18-24 hrs
[30] = system: Staphylococcus epidermidis; assay: Antibacterial activity against methicillin resistant Staphylococcus epidermidis clinical isolate 19-5 assessed as inhibition of bacterial growth incubated for 18 to 24 hrs by broth microdilution method; assay type: functional; conditions: time 18-24 hrs
[31] = system: Acinetobacter baumannii; assay: Antibacterial activity against carbapenem resistant Acinetobacter baumannii clinical isolate 19-8 assessed as inhibition of bacterial growth incubated for 18 to 24 hrs by broth microdilution method; assay type: functional; conditions: time 18-24 hrs
[32] = system: Escherichia coli; assay: Antibacterial activity against Escherichia coli ATCC 25922 assessed as inhibition of bacterial growth incubated for 18 to 24 hrs by broth microdilution method; assay type: functional; conditions: time 18-24 hrs
[33] = system: Cell membrane; assay: Induction of outer membrane permeabilization in Escherichia coli ATCC 25922 assessed as increase in fluorescence at 1 to 16 ug/ml measured after 3 mins by NPN-dye based assay; assay type: subcellular; conditions: dose 1-16 µg/ml

Structure (SMILES) | MIC [6] [µg/mL] | MIC [7] [µg/mL] | MIC [8] [µg/mL] | MIC [10] [µg/mL] | MIC [12] [µg/mL] | MIC [14] [µg/mL] | MIC [18] [µg/mL] | MIC [22] [µg/mL] | MIC [24] [µg/mL] | MIC [26] [µg/mL] | MIC [27] [µg/mL] | MIC [29] [µg/mL] | MIC [30] [µg/mL] | other results
CCCCCCCCCC(=O)N[C@H](CCN)C(=O)N[C@H]1CCNC(=O)[C@H]([C@@H](C)O)NC(=O)[C@H](CCN)NC(=O)[C@H](CCN)NC(=O)[C@H](CC(C)C)NC(=O)[C@@H](Cc2ccccc2)NC(=O)[C@H](CCN)NC1=O (Decanoyl-[dDab][Dab][Dab][dF]L[Dab][Dab]T; lactam 2-C) |  |  |  |  |  |  |  |  |  |  |  |  |  | MIC [1]: 0.5 µg/mL (≈ 0.492 µM); MIC [2]: 0.5 µg/mL (≈ 0.492 µM); MIC [3]: 0.5 µg/mL (≈ 0.492 µM); MIC [4]: 0.5 µg/mL (≈ 0.492 µM); MIC [5]: 0.5 µg/mL (≈ 0.492 µM)
CCCCCCC[C@@H](O)CC(=O)N[C@H](CCN)C(=O)N[C@H]1CCNC(=O)[C@H](CC(C)C)NC(=O)[C@H](CCN)NC(=O)[C@H](CCN)NC(=O)[C@H](Cc2ccccc2)NC(=O)[C@@H](CC(C)C)NC(=O)[C@H](CCN)NC1=O | 2 (≈ 1.92 µM) | 2 (≈ 1.92 µM) | 8 (≈ 7.66 µM) | 4 (≈ 3.83 µM) | 16 (≈ 15.3 µM) | 8 (≈ 7.66 µM) | 16 (≈ 15.3 µM) | 32 (≈ 30.6 µM) | 8 (≈ 7.66 µM) | 16 (≈ 15.3 µM) | 8 (≈ 7.66 µM) | 16 (≈ 15.3 µM) | 2 (≈ 1.92 µM) | MIC [9]: 0.1 µg/mL (≈ 0.0958 µM); selectivity ratio [11]: 2; MIC [13]: 0.4 µg/mL (≈ 0.383 µM); MIC [15]: 0.6 µg/mL (≈ 0.575 µM); MIC [16]: 32 µg/mL (≈ 30.6 µM); MIC [17]: 3.1 µg/mL (≈ 2.97 µM); IC50 at 72 h [19]: 16.1 µg/mL (≈ 15.4 µM); MIC [20]: 8 µg/mL (≈ 7.66 µM); MIC [21]: 0.78 µg/mL (≈ 0.747 µM); MIC [23]: 4 µg/mL (≈ 3.83 µM); MIC [25]: 4.7 µg/mL (≈ 4.5 µM); MIC [28]: 4 µg/mL (≈ 3.83 µM); MIC [31]: 4 µg/mL (≈ 3.83 µM)
C[C@@H](O)[C@H]1C(=O)N2C(C(=O)O)=C(S[C@@H]3CN[C@H](C(=O)N(C)C)C3)[C@H](C)[C@H]12 [MEROPENEM] | 1 (≈ 2.61 µM) | 32 (≈ 83.4 µM) | 4 (≈ 10.4 µM) | 0.5 (≈ 1.3 µM) | 64 (≈ 167 µM) | 2 (≈ 5.22 µM) | ≤ 0.06 | 0.125 (≈ 0.326 µM) | 64 (≈ 167 µM) | > 64 | 0.25 (≈ 0.652 µM) | < 0.06 | 2 (≈ 5.22 µM) | MIC [32]: 0.06 µg/mL (≈ 0.156 µM); Activity [33]: inactive

From ChEMBL document CHEMBL5380795, “Design, Synthesis, and Bioactivity Investigation of Cyclic Lipopeptide Antibiotics Containing Eight to Nine Amino Acids” (J Med Chem, 2023)
